Patent US10172835B2, “Anticancer agent composition” (J-Pharma Co., Ltd., priority 2014, dated 2019)
Counter-ions that a name gives are not always drawn.

What was measured:
[1] = tested on: caspase 3; assay: Western blot of caspase 3 activation and PARP cleavage in primary tPTEN−/− tumor cells (KO#732); format: cell-based, murine; conditions: primary KO#732 cells; COMPOUND-JP 5.0, 10.0 μM; PI-103 10.0 μM; rapamycin 10.0 nM; 2.0-18.0 h
Experimental: (§1) Cell extracts were prepared using a cell lysis buffer (50 mM HEPES, pH 7.4, 150 mM NaCl, 20 mM EDTA, 100 mM NaF, 10 mM Na3VO4, 0.5% nonyl phenoxypolyethoxylethanol (NP40) supplemented with a cocktail of protease inhibitors. After SDS-PAGE separation and transfer to nitrocellulose immunoblotting was performed using the following antibodies against: Akt (Cell Signaling Technologies, #9272), CHOP (#2895), cleaved caspase 3 (#9664), c-Myc (#9402), eIF2a (#9721), 4EBP1 (#9644), LC3A/B (#12741), PARP (#9542), pJnk (T183/Y185) (#9251), pSer235-236-S6RP (#4856), pSer473-Akt (#9271), pSer65-4EBP1 (#9451) and S6RP (#2217); Bax (Sigma-Aldrich, B8429); PUMA (Abcam, ab54288); Bak (Millipore, 06536); ATF4 (Santa Cruz Biotechnologies, sc200), GADD34 (sc8327), Hsp60 (sc-1722), Hsp90 (sc-13119) and XBP1 (sc-7160); ATF6 (Imgenex, IMG-273).

[2] = tested on: KO99L cells; assay: Combination studies with COMPOUND-JP, WST-1 viability, Chou-Talalay combination index; format: cell-based, murine; conditions: 48 h, suboptimal concentrations, in combination with COMPOUND-JP
Experimental: Combinations were analyzed by ANOVA followed by Tukey's Multiple comparison test to determine significance between experimental groups. The synergism between drugs was analyzed using the Chou-Talalay method. […] P-value <0.05 was accepted as statistically significant (*:p<0.05; **:p<0.01; ***:p<0.001). Analyses were performed using the GraphPAd Prism 3.0 software.

[3] = tested on: KO99L cells; assay: BrdU incorporation Elisa (proliferation) on KO99L cells; format: cell-based, murine; conditions: 50.0 μM, KO99L cells
Experimental: Two different assays were employed: i) In a 96-well plate format, cells (4.0±0.1×10^4 per well; 100 μL) were incubated with effectors (48 h, 37° C.; n=4 per experiment) and then WST-1 reagent (10 μL; Roche Diagnostics) added to each well of 96-well plates, incubated, and the formazan production was measured at 490 nm; and ii) cells (2.0±0.1×10^4 per well; 100 μL) were incubated with effectors (48 h, 37° C.; n=4 per experiment) and then bromodeoxyuridine reagent (10 μL/well; Roche Diagnostics) was added to each well and incubated (8 h, 37° C.). The cells were then fixed, denatured and incubated with anti-BrdU-conjugated with peroxidase (POD) antibody (100 μL/well). Colorimetric substrate (TMB: tetramethyl-benzidine; 100 μL/well) was added and BrdU incorporation quantified via optical density measurement (450 nm) which corresponds to DNA synthesis and proliferating cells.

[4] = tested on: KO99L cells; assay: Cell death by flow cytometry after DAPI staining, KO99L cells; format: cell-based, murine; conditions: 50.0 μM
[5] = tested on: caspase 3; assay: Western blot of caspase 3 activation and PARP cleavage, KO99L cells; format: cell-based, murine; conditions: 50.0 μM
Experimental: as §1

[6] = tested on: CHOP; assay: Western blot of CHOP protein levels, KO99L cells; format: cell-based, murine; conditions: 50.0 μM
Experimental: as §1

[7] = tested on: Bcl2 family members; assay: Western blot of Bcl2 family members, KO99L cells; format: cell-based, murine
Experimental: as §1

[8] = tested on: human Peripheral Blood Lymphocytes; assay: Proliferative response of human PBL; format: cell-based; conditions: 1.0 μM, positive inducer of cell death

With Oc1cccc(-c2nc(N3CCOCC3)c3oc4ncccc4c3n2)c1 [PI103, 3-[4-(4-Morpholinylpyrido[3′,2′:4,5]furo[3,2-d]pyrimidin-2-yl]phenol hydrochloride, reference compound] the “caspase 3 processing and PARP cleavage (apoptosis)” value [1] was “efficient cell death inducer” and the “combination effect with COMPOUND-JP on metabolic activity/cell survival (Combination Index)” value [2] was “less efficient”.
In the case of O=C(C=Cc1ccccc1)NC(NC(=S)Nc1cccc2cccnc12)C(Cl)(Cl)Cl (centres unmarked) [salubrinal, N-(2,2,2-trichloro-1-(3-(quinolin-8-yl)thioureido)ethyl)cinnamamide, reference compound], the “cell proliferation (BrdU incorporation or cell counting) in presence of COMPOUND-JP” value [3] is reported as “restored cell proliferation”, the “cell death induced via COMPOUND-JP” value [4] is reported as “rescue KO99L cells against cell death” and the “caspase 3 cleavage in presence of COMPOUND-JP” value [5] is reported as “decreased caspase 3 cleavage”. For the same compound, the “effect on CHOP induction by COMPOUND-JP (10.0 μM)” value [6] was “offset CHOP induction” and the “COMPOUND-JP induction of Bax, Bak, PUMA and Bim in presence of salubrinal” value [7] was “sensitive to inhibition of CHOP by salubrinal”.
In the case of CN[C@@H]1C[C@H]2O[C@@](C)([C@@H]1OC)n1c3ccccc3c3c4c(c5c6ccccc6n2c5c31)C(=O)NC4 [staurosporine, reference compound], the PBL cell proliferation [8] is reported as “strongly affected cell proliferation”.
